According to article PMC7855844 (Bioorganic & medicinal chemistry, 2020):
Each block holds one compound with its values, some of them ahead of it.

Columns and labels:
Mcl-1 protein = Mcl-1 protein (Homo sapiens, UniProt Q07820); experiment: Fluorescence polarization-based binding; conditions: for decrease in Mcl-1 inhibitory activity: compared with coumarin 33
A549 cells = experiment: Cytotoxicity assay by SRB method; conditions: taxol in combination with Cpd 4 vs taxol alone

Chain of Mcl-1 protein (Q07820 whole entry): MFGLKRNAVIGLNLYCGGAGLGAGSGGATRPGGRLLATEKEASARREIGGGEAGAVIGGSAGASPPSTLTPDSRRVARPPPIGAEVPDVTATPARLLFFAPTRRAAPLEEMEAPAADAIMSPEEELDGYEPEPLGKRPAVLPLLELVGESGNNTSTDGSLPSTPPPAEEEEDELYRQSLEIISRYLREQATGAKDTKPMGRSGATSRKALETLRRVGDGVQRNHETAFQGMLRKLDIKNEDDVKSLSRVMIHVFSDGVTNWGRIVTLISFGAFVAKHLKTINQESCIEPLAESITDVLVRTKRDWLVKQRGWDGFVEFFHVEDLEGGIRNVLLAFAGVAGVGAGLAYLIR

Compound: O=c1ccc2cc(O)ccc2o1 [Cpd 34, 6-hydroxycoumarin]
decrease in Mcl-1 inhibitory activity (Mcl-1 protein): 6 fold

Compound: O=c1ccc2ccc(O)cc2o1 [Cpd 35, 7-hydroxycoumarin]
decrease in Mcl-1 inhibitory activity (Mcl-1 protein): little effect

Compound: CC(=O)O[C@H]1C(=O)[C@@]2(C)[C@H]([C@H](OC(=O)c3ccccc3)[C@]3(O)C[C@H](OC(=O)[C@H](O)[C@@H](NC(=O)c4ccccc4)c4ccccc4)C(C)=C1C3(C)C)[C@]1(OC(C)=O)CO[C@@H]1C[C@@H]2O [taxol]
decrease of IC50 value for the combination compared with taxol alone (A549 cells): more than 10 fold

The next lines start with the values.

decrease of Mcl-1 inhibitory activity (Mcl-1 protein; compared with parent 1): more than 7 fold
Compound: Cc1cc(=O)oc2c(CN3CCC(O)CC3)c(O)c(O)cc12 [Cpd 15, 6,7-dihydroxy-8-((4-hydroxypiperidin-1-yl)methyl)-4-methyl-2H-chromen-2-one]

Kd (Mcl-1 protein; read-out: Kd for binding to Mcl-1 protein, saturation experiments): 13 nM
Compound: FAM-Bid: Bid BH3 peptide of 21-residue (residues 79–99) with a 6-carboxy-fluorescein succinimidyl ester fluorescence tag [reference compound]
